Results taken from patent US6737383B1, “Herbicidal oxadiazolidines” (priority 1999, dated 2004).

Key:
surinam grass = test: Test B pre/postemergence surinam grass; format: in vivo, Brachiaria decumbens
Outline: (§1)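 Herbicidal effect was estimated by eye on a ten-point control scale after plants spent twelve to sixteen days in a greenhouse following soil or foliar treatment. Foliar sprays targeted plants at one to four leaves; all doses were formulated in a non-phytotoxic solvent with surfactant.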

blackgrass [1] = test: Test B pre/postemergence blackgrass; format: in vivo, Alopecurus myosuroides
Outline: as §1

green foxtail = test: Test E green foxtail; format: in vivo, Setaria viridis; conditions: Preemergence
wild oat = test: Test E wild oat; format: in vivo, Avena fatua; conditions: Preemergence; Rate 1000 g/ha; 0 to 100 scale where 0 is no effect and 100 is complete control
bedstraw = test: Test B pre/postemergence bedstraw; format: in vivo, Galium aparine
Outline: as §1

blackgrass [2] = test: Test E blackgrass; format: in vivo, Alopecurus myosuroides; conditions: Preemergence
Italian ryegrass = test: Test E Italian ryegrass; format: in vivo, Lolium multiflorum; conditions: Preemergence
winter wheat [3] = test: Test E winter wheat; format: in vivo, Triticum aestivum; conditions: Postemergence
Outline: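 Greenhouse test: compounds in non-phytotoxic solvent with surfactant; for postemergence, sprayed on plants at 1- to 4-leaf stage grown in 60:40 sandy loam/potting mix. Injury rated visually against untreated controls after about 21 to 28 days.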

smallflower flatsedge = test: Test B flood test smallflower flatsedge; format: in vivo, Cyperus difformis
Outline: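 Read-out is a visual response score from 0 (no effect) to 10 (complete control), assigned by comparison with untreated controls. Treatment was applied at the 2-leaf stage, and plants stayed in the greenhouse for twelve to sixteen days before scoring.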

winter wheat [4] = test: Test E winter wheat; format: in vivo, Triticum aestivum; conditions: Preemergence
winter barley = test: Test E winter barley; format: in vivo, Hordeum vulgare; conditions: Preemergence
[5] = Postemergence, Rate 62 g/ha, scale 0 to 10, 0 is no effect, 10 is complete control
[6] = Postemergence, Rate 250 g/ha, scale 0 to 10, 0 no effect, 10 complete control
[7] = Preemergence, Rate 62 g/ha, scale 0 to 10 (0 no effect, 10 complete control)
[8] = Preemergence, Rate 125 g/ha, scale 0 to 10 (0 no effect, 10 complete control)
[9] = Preemergence, Rate 250 g/ha, scale of 0 to 10 where 0 is no effect and 10 is complete control
[10] = Preemergence, Rate 500 g/ha, scale 0 (no effect) to 10 (complete control)
[11] = Rate 125 g/ha, Postemergence, scale 0 to 10, 0 no effect, 10 complete control
[12] = Rate 500 g/ha, Postemergence, scale 0 to 10, 0 no effect, 10 complete control
[13] = Rate 500 g/ha, 0 to 100 scale where 0 is no effect and 100 is complete control
[14] = Rate 1000 g/ha, 0 to 100 scale where 0 is no effect and 100 is complete control

Cc1nn(C)c(C)c1-n1c(=O)on(C(=O)N(c2ccc(F)cc2)C(C)C)c1=O [Compound 75]
B. signalgrass plant response rating (surinam grass; [5]): 2 | B. signalgrass plant response rating (surinam grass; [6]): 6 | B. signalgrass plant response rating (surinam grass; [7]): 0 | Plant response rating, B. signalgrass (surinam grass; [8]): 1 | Plant response rating, B. signalgrass (surinam grass; [9]): 2 | B. signalgrass plant response rating (surinam grass; [10]): 8 | B. signalgrass plant response rating (surinam grass; [11]): 3 | B. signalgrass plant response rating (surinam grass; Rate 500 g/ha, Postemergence, scale of 0 to 10 where 0 is no effect and 10 is complete control): 8 | Blackgrass plant response rating (blackgrass [1]; [5]): 3 | Blackgrass plant response rating (blackgrass [1]; [6]): 7 | Blackgrass plant response rating (blackgrass [1]; [7]): 0 | Plant response rating, Blackgrass (blackgrass [1]; [8]): 1 | Plant response rating, Blackgrass (blackgrass [1]; [9]): 7 | Blackgrass plant response rating (blackgrass [1]; [10]): 9 | Blackgrass plant response rating (blackgrass [1]; [11]): 5 | Blackgrass plant response rating (blackgrass [1]; [12]): 9 | Plant response rating, Green foxtail (green foxtail; Rate 250 g/ha, 0 to 100 scale): 60 | Plant response rating, Green foxtail (green foxtail; [13]): 60 | Plant response rating, Green foxtail (green foxtail; [14]): 60 | Plant response rating, Wild oat (wild oat): 10 | Bedstraw plant response rating (bedstraw; [5]): 0 | Bedstraw plant response rating (bedstraw; [6]): 0 | Bedstraw plant response rating (bedstraw; [7]): 0 | Plant response rating, Bedstraw (bedstraw; [8]): 0 | Plant response rating, Bedstraw (bedstraw; [9]): 0 | Bedstraw plant response rating (bedstraw; [10]): 0 | Bedstraw plant response rating (bedstraw; [11]): 0 | Bedstraw plant response rating (bedstraw; [12]): 0 | Plant response rating, Blackgrass (blackgrass [2]; Rate 250 g/ha, 0 to 100 scale): 20 | Plant response rating, Blackgrass (blackgrass [2]; [13]): 40 | Plant response rating, Blackgrass (blackgrass [2]; [14]): 85 | Plant response rating, I. Ryegrass (Italian ryegrass; Rate 250 g/ha, 0 to 100 scale): 20 | Plant response rating, I. Ryegrass (Italian ryegrass; [13]): 30 | Plant response rating, I. Ryegrass (Italian ryegrass; [14]): 50 | Plant response rating, Wheat (winter) (winter wheat [3]; Rate 250 g/ha, 0 to 100 scale (0 no effect, 100 complete control)): 60 | Plant response rating, Wheat (winter) (winter wheat [3]; Rate 1000 g/ha, 0 to 100 scale, 0 is no effect and 100 is complete control): 70 | Plant response rating, Wheat (winter) (winter wheat [3]; Rate 500 g/ha, 0 to 100 scale, 0 no effect, 100 complete control): 75 | S. Flatsedge plant response rating (smallflower flatsedge; [5]): 0 | S. Flatsedge plant response rating (smallflower flatsedge; Rate 125 g/ha, Postemergence section (flood test species), scale 0 to 10, 0 no effect, 10 complete control): 0 | S. Flatsedge plant response rating (smallflower flatsedge; Rate 500 g/ha, listed under Postemergence (flood test species), scale 0 to 10, 0 no effect, 10 complete control): 0 | S. Flatsedge plant response rating (smallflower flatsedge; flood test, listed under Postemergence, Rate 250 g/ha, scale 0 to 10, 0 no effect, 10 complete control): 0 | Plant response rating, Wheat (winter) (winter wheat [4]; Rate 250 g/ha, 0 to 100 scale): 10 | Plant response rating, Wheat (winter) (winter wheat [4]; [13]): 20 | Plant response rating, Wheat (winter) (winter wheat [4]; [14]): 65 | Plant response rating, Barley (winter) (winter barley; Rate 250 g/ha, 0 to 100 scale): 10 | Plant response rating, Barley (winter) (winter barley; [13]): 20 | Plant response rating, Barley (winter) (winter barley; [14]): 60
